The test system of one data set is Aleochara bilineata. To be noted: chronic/long-term; duration: 77 days; reproduction.
The test system of the next data set is Coturnix japonica. To be noted: acute; oral; diet; mortality.
Another data set has as its system Folsomia candida. To be noted: chronic/long-term; duration: 28 days; mortality.
A further data set has as its system Landoltia sp. The settings on record: chronic/long-term; duration: 14 days; other.
A further data set concerns Lepomis macrochirus. The settings on record: acute; duration: 96 hours; mortality.
In the next data set the test system is Pleurozium sp. The settings on record: acute; duration: 72 hours.
In the next data set the test system is Rattus norvegicus. The settings on record: for LD50: acute, mortality.
The test system of a further data set is Tagia sp. The settings on record: acute; duration: 14 days; mortality.
The subject of a further data set is Canidae. The settings on record: subchronic; duration: 90 days; oral; gavage; Dog Other; body weight.
A further data set deals with Mus musculus. The settings on record: acute, oral, mortality.

The text below walks through data of EPA's ToxValDB 9.5 (doi:10.2903/j.efsa.2010.1833).

Each structure is given as a SMILES string. Values after ≈ are worked out from the molar mass of the structure shown. Bounds are passed on as bounds.

On to `CN1CSC(=S)N(C)C1` [Dazomet], for which the LEL in the data set on Aleochara bilineata and in the data set with Folsomia candida was 485000 g/ha throughout. For the same compound, the NOEL was 16.7 mg/kg-day in the data set with Anas platyrhynchos (reproductive) and 10.6 mg/kg-day in the data set on Colinus virginianus (reproduction developmental). Also, the LC50 was more than 341 mg/kg-day in the data set on Anas platyrhynchos (short-term, oral, feed, mortality); 197 mg/kg-day with Colinus virginianus (acute, oral, diet, mortality); more than 1220 mg/kg-day in the data set on Coturnix japonica; 0.3 µg/mL (≈ 1.85 µM) with Lepomis macrochirus; 6.5 mg/kg with Tagia sp.. Further, the LD50 with Colinus virginianus (acute, oral, mortality) was more than 415 mg/kg-day; in the data set with Rattus norvegicus (oral, F) it was 415 mg/kg-day; with Rattus norvegicus (oral, M) it was 596 mg/kg-day. For the same compound, the results for the NOEC in the data set on Landoltia sp. and with Pleurozium sp. were 0.306 mg/L and 0.056 mg/L, respectively. For the same compound, the NOAEL with Rattus norvegicus (chronic, duration: 2 years, oral, diet, hematological) came out at 0.9 mg/kg-day; with Rattus norvegicus (developmental, development), 3 mg/kg-day; in the data set on Rattus norvegicus (reproduction developmental, reproduction), 18 mg/kg-day; in the data set with Rattus norvegicus (subchronic, duration: 90 days, oral, diet, organ weight) it was 1.5 mg/kg-day.

For `CN=C=S` [Methyl isothiocyanate], the NOAEL in the data set on Canidae amounted to 0.4 mg/kg-day; in the data set with Rattus norvegicus (reproduction developmental, body weight), 3 mg/kg-day. In addition, the LD50 in the data set on Mus musculus (F) turned out to be 100 mg/kg-day; in the data set on Mus musculus (M), 120 mg/kg-day.
